Patent US7449301B2, “Pharmaceutical composition and method for activating macrophage using the same” (National University Corporation Gunma University, priority 2004, dated 2008)

Legend:
Format in all cases: cell-based, mouse
[1] = test system: peritoneal macrophages (PEMs); experiment: Phagocytosis assay of PEMs with RBCs (phagocytosis index); conditions: PEMs preincubated 30 min with ML-7 10 μM or BDM 50 mM; IgG-opsonized RBCs 5 min; FIG. 3
[2] = test system: PEMs; experiment: Immunocytofluorescence of PEMs (morphology, F-actin, activated MAPK); conditions: PEMs treated with mAb80 in presence of inhibitor; FIG. 4B
Method: PEMs treated with rat IgG, mAb80 or mAb84 were fixed for 20 to 30 min at room temperature in PBS containing 4% paraformaldehyde and 0.1% glutaraldehyde, and were then permeabilized for 60 min at room temperature in PBS containing 0.1% Triton X-100 and 5% goat serum (blocking solution). After incubation for 1 h at room temperature or overnight at 4° C. with primary antibody (anti-activated MAPK antibody) diluted in blocking solution, the cells were washed with PBS and incubated for 1 h at room temperature with Alexa488-conjugated secondary antibodies (Molecular Probes) diluted in blocking solution. For visualization of F-actin, cells were incubated with rhodamine-conjugated phalloidin (Molecular Probes) together with the secondary antibodies. The cells were finally washed with PBS and mounted. Fluorescence images were acquired with a laser-scanning confocal microscope (LSM5 PASCAL, Zeiss) (FIG. 4).

[3] = test system: MAPK; experiment: Immunoblot of activated (phosphorylated) MAPK in PEMs; conditions: 50 μM PD98059 or 2 μM U0126, FIG. 2B, C bottom
Method: PEMs were treated with anti-SIRPβ antibody or control IgG, and a secondary antibody, and incubated at 37° C. for 10 min. As a positive control, PEMs were incubated at 37° C. for 10 min in the presence of M-CSF (macrophage colony stimulating factor) (10 ng/ml). As a negative control, non-treated PEMs were used. Then, cells were lysed and subjected to immunoblot analysis using an anti-MAPK antibody (αMAPK), anti-activated (phosphorylated) MAPK antibody (αpMAPK), anti-MEK antibody (αMEK) or anti-activated MEK antibody (αpMEK) (FIG. 2A).
Then, the MEK inhibitors, PD98059 and U0126 were used to examine the role of MAPK-MEK pathway in the macrophage activation by an anti-SIRPβ antibody. PEMs were incubated in the presence or absence of 50 μM PD98059 or 2 μM U0126 at 37° C. for 30 min, and then treated with an anti-SIRPβ antibody or control IgG, and a secondary antibody. After incubation with IgG-opsonized RBCs at 37° C. for 5 min, cells were fixed and phagocytosis index was calculated (FIG. 2B, C; upper figures). On the other hand, PEMs were treated with an anti-SIRPβ antibody or control IgG, and a secondary antibody in the presence or absence of the inhibitors, followed by an analysis using an anti-MAPK antibody (αMAPK) and an anti-activated (phosphorylated) MAPK antibody (αpMAPK) (FIG. 2B, C; bottom figures). […]

Row | Structure (SMILES) | effect of inhibitor on anti-SIRPβ antibody activation of macrophage-mediated phagocytosis [1] | effect of inhibitor on morphological change of PEMs induced by anti-SIRPβ antibody [2] | activation of MAPK by mAb80 and mAb84 in the presence of MEK inhibitor [3]
1 | CC(=O)C(C)=NO [BDM, 2,3-butanedione 2-monoxime] | attenuated the activation of macrophages-mediated phagocytosis |  | 
2 | O=S(=O)(c1cccc2c(I)cccc12)N1CCCNCC1 [ML-7] | attenuated the activation of macrophages-mediated phagocytosis | markedly inhibited | 
3 | COc1cccc(-c2cc(=O)c3ccccc3o2)c1N [PD98059] |  | markedly inhibited | did not occur
4 | N#CC(=C(/N)Sc1ccccc1N)/C(C#N)=C(\N)Sc1ccccc1N [U0126] |  |  | did not occur
